Experimental data taken from US20240140958A1, “FUSED QUADRACYCLIC COMPOUNDS, COMPOSITIONS AND USES THEREOF” (Tabomedex Biosciences, Inc., priority 2021, published 2024).

Molecular target: T1, MAPKAPK2 Recombinant Human Protein (Homo sapiens, UniProt P49137)
T1 construct: purchased ThermoFisher pv3317
Test: MK2 kinase assay (Z'-LYTE kinase assay kit)
Details: inhibition of MK2 biochemical activity; 90 min incubation at room temperature
Procedure: Materials and Reagents for Measuring Inhibition of MK2 Biochemical Activity: • 1) Assay plate: 384 Well Low Volume Black Round Bottom Polystyrene NBS Microplate (Corning, Cat.No. 4514) • 2) MK2 kinase assay kit: Z' LYTE KINASE ASSAY KIT (ThermoFisher, Cat.No. pv3177) • 3) MAPKAPK2 Recombinant Human Protein (ThermoFisher, Cat.No. pv3317) • 4) DMSO (Vetec, Cat.No. V900090) • 5) DTT (Sigma, Cat.No. D0632)
MK2 Kinase Assay Procedure: • 1) Dispense 5 μl Kinase/Peptide Mixture to each wells of 384-well plate • 2) Add 2.5 μl 4× Test Compound to each well • 3) Add 2.5 μl 4× ATP Solution to each well • 4) After 90 minutes incubation at room temperature, add 5 μl Development Solution to each well • 5) After 60 minutes incubation at room temperature, add 5 μl stop Solution to each well • 6) Measure the Coumarin (Ex. 400 nm, Em. 445 nm) and Fluorescein (Ex. 400 nm, Em. 520 nm) emission signals on an Envision plate reader (PerkinElmer)

T1 sequence (P49137 whole entry): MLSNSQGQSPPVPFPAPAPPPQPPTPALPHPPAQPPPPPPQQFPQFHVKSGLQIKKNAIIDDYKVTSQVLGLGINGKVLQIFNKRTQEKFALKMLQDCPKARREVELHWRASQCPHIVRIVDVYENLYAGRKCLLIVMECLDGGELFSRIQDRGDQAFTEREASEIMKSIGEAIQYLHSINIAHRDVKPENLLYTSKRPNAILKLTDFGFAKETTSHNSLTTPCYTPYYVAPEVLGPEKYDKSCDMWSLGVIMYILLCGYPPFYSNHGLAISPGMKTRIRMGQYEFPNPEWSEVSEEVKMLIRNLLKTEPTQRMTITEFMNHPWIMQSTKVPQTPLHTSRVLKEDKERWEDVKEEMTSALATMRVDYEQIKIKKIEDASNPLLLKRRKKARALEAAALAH

IC50 [nM] | Compound
< 50 | N#Cc1ccc(-c2cc3n(c2)Cc2cc(N4C[C@@H](C5(N)CC5)CC4=O)ccc2-n2ccnc2-3)cc1 (stereo in doubt) [Example 49, (S)-4-(7-(4-(1-aminocyclopropyl)-2-oxopyrrolidin-1-yl)-9H-benzo[e]imidazo [2,1-c]pyrrolo[1,2-a][1,4]diazepin-12-yl)benzonitrile]
50 to 100 | N#Cc1ccc(-c2cc3n(c2)Cc2cc(N4C[C@@H](CN)OC4=O)ccc2-n2ccnc2-3)cc1 [Example 2]
50 to 100 | C[N+](C)(C)C[C@H]1CC(=O)N(c2ccc3c(c2)Cn2cc(-c4ccc(C#N)cc4)cc2-c2nccn2-3)C1 [Example 18, (S)-1-(1-(12-(4-cyanophenyl)-9H-benzo[e]imidazo[2,1-c]pyrrolo[1,2-a][1,4]diazepin-7-yl)-5-oxopyrrolidin-3-yl)-N,N,N-trimethylmethanaminium iodide]
< 50 | CC(C)(N)C1CN(c2ccc3c(c2)Cn2cc(-c4ccc(C#N)cc4)cc2-c2nccn2-3)C(=O)O1 (stereo not shown) [Example 20]
50 to 100 | N#Cc1ccc(-c2cc3n(c2)Cc2cc(N4CCN(C5CC5)CC4=O)ccc2-n2ccnc2-3)cc1 [Example 31, 4-(7-(4-Cyclopropyl-2-oxopiperazin-1-yl)-9H-benzo[e]imidazo[2,1-c]pyrrolo [1,2-a][1,4]diazepin-12-yl)benzonitrile]
50 to 100 | N#Cc1ccc(-c2cc3n(c2)Cc2cc(N4C[C@@H](N)CC4=O)ccc2-n2ccnc2-3)cc1 [Example 32, (S)-4-(7-(4-Amino-2-oxopyrrolidin-1-yl)-9H-benzo[e]imidazo[2,1-c]pyrrolo [1,2-a][1,4]diazepin-12-yl)benzonitrile]
< 50 | [2H]C([2H])([2H])N(C([2H])([2H])[2H])C([2H])([2H])C1CCN(c2ccc3c(c2)Cn2cc(-c4ccc(C#N)cc4)cc2-c2nccn2-3)C1=O (stereo not shown) [Example 38, 4-(7-(3-((Dideuteratedmethylamino)deuteratedmethyl)-2-oxopyrrolidin-1-yl)-9H-benzo[e]imidazo[2,1-c]pyrrolo[1,2-a][1,4]diazepin-12-yl)benzonitrile]
100 to 200 | CN(C)CC1(C)CCN(c2ccc3c(c2)Cn2cc(-c4ccc(C#N)cc4)cc2-c2nccn2-3)C1=O (stereo not shown) [Example 39, 4-(7-(3-((Dimethylamino)methyl)-3-methyl-2-oxopyrrolidin-1-yl)-9H-benzo[e]imidazo[2,1-c]pyrrolo[1,2-a][1,4]diazepin-12-yl)benzonitrile]
< 50 | CN(C)CCC1CCN(c2ccc3c(c2)Cn2cc(-c4ccc(C#N)cc4)cc2-c2nccn2-3)C1=O (stereo not shown) [Example 40, 4-(7-(3-(2-(Dimethylamino)ethyl)-2-oxopyrrolidin-1-yl)-9H-benzo[e]imidazo [2,1-c]pyrrolo[1,2-a][1,4]diazepin-12-yl)benzonitrile]
50 to 100 | CC(C)(N)C1CCN(c2ccc3c(c2)Cn2cc(-c4ccc(C#N)cc4)cc2-c2nccn2-3)C1=O (stereo not shown) [Example 44, 4-(7-(3-(2-Aminopropan-2-yl)-2-oxopyrrolidin-1-yl)-9H-benzo[e]imidazo [2,1-c]pyrrolo[1,2-a][1,4]diazepin-12-yl)benzonitrile]
50 to 100 | CN(C)C[C@@H]1[C@@H]2CN(c3ccc4c(c3)Cn3cc(-c5ccc(C#N)cc5)cc3-c3nccn3-4)C(=O)[C@H]12 [Example 45, 4-(7-((1R,5S,6R)-6-((Dimethylamino)methyl)-2-oxo-3-azabicyclo[3.1.0]hexan-3-yl)-9H-benzo[e]imidazo[2,1-c]pyrrolo[1,2-a][1,4]diazepin-12-yl)benzonitrile]
< 50 | CC(C)(N)C1CC(=O)N(c2ccc3c(c2)Cn2cc(-c4ccc(C#N)cc4)cc2-c2nccn2-3)C1 (stereo not shown) [Example 51]
< 50 | CC(C)(N)[C@H]1CC(=O)N(c2ccc3c(c2)Cn2cc(-c4ccc(C#N)cc4)cc2-c2nccn2-3)C1 [Example 52]
< 50 | CN1CCN2C(=O)N(c3ccc4c(c3)Cn3cc(-c5ccc(C#N)cc5)cc3-c3nccn3-4)C[C@H]2C1 [Example 60, (R)-4-(7-(7-Methyl-3-oxohexahydroimidazo[1,5-a]pyrazin-2(3H)-yl)-9H-benzo[e]imidazo[2,1-c]pyrrolo[1,2-a][1,4]diazepin-12-yl)benzonitrile]
< 50 | CC1(C2CC(=O)N(c3ccc4c(c3)Cn3cc(-c5ccc(C#N)cc5)cc3-c3nccn3-4)C2)CCN1 (stereo not shown) [Example 62, 4-(7-(4-(2-methylazetidin-2-yl)-2-oxopyrrolidin-1-yl)-9H-benzo[e]imidazo[2,1-c]pyrrolo[1,2-a][1,4]diazepin-12-yl)benzonitrile]
50 to 100 | N#Cc1ccc(-c2cc3n(c2)Cc2cc(N4CC(C5(CO)COC(=O)N5)CC4=O)ccc2-n2ccnc2-3)cc1 (stereo not shown) [Example 63, 4-(7-(4-(4-(Hydroxymethyl)-2-oxooxazolidin-4-yl)-2-oxopyrrolidin-1-yl)-9H-benzo[e]imidazo[2,1-c]pyrrolo[1,2-a][1,4]diazepin-12-yl)benzonitrile]
< 50 | CC1(CN2C(=O)CN(c3ccc4c(c3)Cn3cc(-c5ccc(C#N)cc5)cc3-c3nccn3-4)C2=O)CNC1 [Example 64, 4-(7-(3-((3-Methylazetidin-3-yl)methyl)-2,4-dioxoimidazolidin-1-yl)-9H-benzo[e]imidazo[2,1-c]pyrrolo[1,2-a][1,4]diazepin-12-yl)benzonitrile]
50 to 100 | CN(C)C1CCC(C(=O)Nc2ccc3c(c2)Cn2cc(-c4ccc(C#N)cc4)cc2-c2nccn2-3)C1 (stereo not shown) [Example 78]
50 to 100 | N#Cc1ccc(-c2cc3n(c2)Cc2cc(N4C[C@H](CO)NCC4=O)ccc2-n2ccnc2-3)cc1 [Example 80, (R)-4-(7-(5-(Hydroxymethyl)-2-oxopiperazin-1-yl)-9H-benzo[e]imidazo[2,1-c]pyrrolo[1,2-a][1,4]diazepin-12-yl)benzonitrile]
50 to 100 | Cc1nnc2n1-c1ccc(N3CCC(CCN(C)C)C3=O)cc1Cn1cc(-c3ccc(C#N)cc3)cc1-2 (stereo not shown) [Example 81, 4-(7-(3-(2-(Dimethylamino)ethyl)-2-oxopyrrolidin-1-yl)-3-methyl-9H-benzo[e]pyrrolo[1,2-a][1,2,4]triazolo[3,4-c][1,4]diazepin-12-yl)benzonitrile]

IC50 [nM] | Compound
50 to 100 | Cc1nnc2n1-c1ccc(N3C[C@@H](CN(C)C)OC3=O)cc1Cn1cc(-c3ccc(C#N)cc3)cc1-2 [Example 83]
50 to 100 | Cc1nnc2n1-c1ccc(N3CCC(CN(C)C)C3=O)cc1Cn1cc(-c3ccc(C#N)cc3)cc1-2 (stereo not shown) [Example 84]
< 50 | Cc1nnc2n1-c1ccc(N3CCN(CCN(C)C)C3=O)cc1Cn1cc(-c3ccc(C#N)cc3)cc1-2 [Example 85]
50 to 100 | CN(C)C[C@H]1CC(=O)N(c2ccc3c(c2F)Cn2cc(-c4ccc(C#N)cc4)cc2-c2nccn2-3)C1 [Example 92, (R)-4-(7-(4-((Dimethylamino)methyl)-2-oxopyrrolidin-1-yl)-8-fluoro-9H-benzo[e]imidazo[2,1-c]pyrrolo[1,2-a][1,4]diazepin-12-yl)benzonitrile]
< 50 | CN1CC[C@H](NC(=O)c2ccc3c(c2)Cn2cc(-c4ccc(C#N)cc4)cc2-c2nccn2-3)C1 [Example 102]
200 to 300 | CN(C)C1CCN(C(=O)c2ccc3c(c2)Cn2cc(-c4ccc(C#N)cc4)cc2-c2nccn2-3)C1 (stereo not shown) [Example 103]
200 to 300 | CN(C)C1CN(C(=O)c2ccc3c(c2)Cn2cc(-c4ccc(C#N)cc4)cc2-c2nccn2-3)C1 [Example 104]
100 to 200 | CN1CCCC1CNC(=O)c1ccc2c(c1)Cn1cc(-c3ccc(C#N)cc3)cc1-c1nccn1-2 (stereo not shown) [Example 106]
200 to 300 | CN1CCN(C(=O)c2ccc3c(c2)Cn2cc(-c4ccc(C#N)cc4)cc2-c2nccn2-3)CC1 [Example 107]
200 to 300 | Cc1nnc2n1CCN(C(=O)c1ccc3c(c1)Cn1cc(-c4ccc(C#N)cc4)cc1-c1nccn1-3)C2 [Example 108]
200 to 300 | CC(C)(N)CNC(=O)c1ccc2c(c1)Cn1cc(-c3ccc(C#N)cc3)cc1-c1nccn1-2 [Example 111]
50 to 100 | CN(C)CC1CCN(C(=O)c2ccc3c(c2)Cn2cc(-c4ccc(C#N)cc4)cc2-c2nccn2-3)C1 (stereo not shown) [Example 112, 4-(7-(3-((dimethylamino)methyl)pyrrolidine-1-carbonyl)-9H-benzo[e]imidazo [2,1-c]pyrrolo[1,2-a][1,4]diazepin-12-yl)benzonitrile]
200 to 300 | CN(C)C[C@H]1CCCN1C(=O)c1ccc2c(c1)Cn1cc(-c3ccc(C#N)cc3)cc1-c1nccn1-2 [Example 113]
100 to 200 | CN(C)C[C@@H]1CCCN1C(=O)c1ccc2c(c1)Cn1cc(-c3ccc(C#N)cc3)cc1-c1nccn1-2 [Example 114]
100 to 200 | N#Cc1ccc(-c2cc3n(c2)Cc2cc(C(=O)NCCN4CCC4)ccc2-n2ccnc2-3)cc1 [Example 118]
50 to 100 | CN1CC(C)(CNC(=O)c2ccc3c(c2)Cn2cc(-c4ccc(C#N)cc4)cc2-c2nccn2-3)C1 [Example 121]
300 to 400 | CN(C)[C@H]1CC[C@H](NC(=O)c2ccc3c(c2)Cn2cc(-c4ccc(C#N)cc4)cc2-c2nccn2-3)C1 [Example 122]
300 to 400 | CN(C)[C@@H]1CC[C@@H](NC(=O)c2ccc3c(c2)Cn2cc(-c4ccc(C#N)cc4)cc2-c2nccn2-3)C1 [Example 123]
50 to 100 | CN(C)[C@@H]1CCCN(C(=O)c2ccc3c(c2)Cn2cc(-c4ccc(C#N)cc4)cc2-c2nccn2-3)C1 [Example 124]
50 to 100 | CN(C)[C@H]1CCCN(C(=O)c2ccc3c(c2)Cn2cc(-c4ccc(C#N)cc4)cc2-c2nccn2-3)C1 [Example 125]
